Reference: PubChem BioAssay AID330 (DTP/NCI, 2004)
“And” between values parts separate entries of the source, which are not always exact repeats. Equal values may be shown once. Toxic doses and inconclusive results are not listed.

Test system: P388 leukemia ip, CD2F1 mice, survival T/C
Assay: NCI In Vivo Anticancer Drug Screen. Data for tumor model P388 Leukemia (intraperitoneal) in CD2F1 (CDF1) mice
Details: endpoint: median survival time, higher = longer survival
In short: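 Mice carrying the transplanted tumor received test compound or vehicle. Survival was recorded in each group, and the value is the treated-group measurement divided by that of the vehicle-treated control group.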

[1] = dose: 200.0 mg/kg/injection, schedule: Q04DX003 (ip), vehicle: saline with Tween-80
[2] = dose: 12.5 mg/kg/injection, schedule: Q01DX009 (ip), vehicle: saline
[3] = dose: 1.25 mg/kg/injection, schedule: Q01DX009 (ip), vehicle: saline
[4] = dose: 2.5 mg/kg/injection, schedule: Q01DX009 (ip), vehicle: saline
[5] = dose: 5.0 mg/kg/injection, schedule: Q01DX009 (ip), vehicle: saline

For `CN1C(=O)c2ccccc2NC(=O)C12O[C@@H]2c1ccccc1` (stereo not given in full), the T/C (dose: 1.88 mg/kg/injection, schedule: Q01DX005 (ip), vehicle: DMSO) was 100 % of control, the T/C (dose: 3.75 mg/kg/injection, schedule: Q01DX005 (ip), vehicle: DMSO) was 106 % of control and the T/C (dose: 7.5 mg/kg/injection, schedule: Q01DX005 (ip), vehicle: DMSO) was 106 % of control. The T/C (dose: 15.0 mg/kg/injection, schedule: Q01DX005 (ip), vehicle: DMSO) was 114 % of control.

`FC(F)(F)C(F)(F)C(F)(F)c1nnc(-c2ccc(Cl)cc2Cl)o1` was tested, and the T/C (dose: 100.0 mg/kg/injection, schedule: Q01DX001 (ip), vehicle: saline with Tween-80) was 95 % of control, the T/C (dose: 200.0 mg/kg/injection, schedule: Q01DX001 (ip), vehicle: saline with Tween-80) was 100 % of control and the T/C (dose: 400.0 mg/kg/injection, schedule: Q01DX001 (ip), vehicle: saline with Tween-80) was 96 % of control.

With `COc1cc(/C=N\N=C\c2cc(OC)c(OC)c(OC)c2)cc(OC)c1OC` the T/C [1] was 100 % of control.

For `CCCCCC(CN(C)C)C(=O)/C=C/c1ccccc1Cl` (stereo not given), the T/C (dose: 6.25 mg/kg/injection, schedule: Q01DX009 (ip), vehicle: saline) was 104 % of control, the T/C [2] was 102 % of control and the T/C (dose: 25.0 mg/kg/injection, schedule: Q01DX009 (ip), vehicle: saline) was 93 % of control. For the same compound, the T/C (dose: 50.0 mg/kg/injection, schedule: Q01DX009 (ip), vehicle: saline) was 101 % of control.

For `O=C(CCN1C(=O)CC1c1ccco1)N1CCOCC1` (stereo not given), the T/C (dose: 60.0 mg/kg/injection, schedule: Q01DX005 (ip), vehicle: saline with Tween-80) was 103 % of control, the T/C (dose: 120.0 mg/kg/injection, schedule: Q01DX005 (ip), vehicle: saline with Tween-80) was 103 % of control and the T/C (dose: 240.0 mg/kg/injection, schedule: Q01DX005 (ip), vehicle: saline with Tween-80) was 97 % of control.

In the case of `CCCCCCCCCCCCCCCCCCCCCCCCC(O)C(=O)O` (stereo not given) (tested in a mixture with another compound), the T/C (dose: 12.5 mg/kg/injection, schedule: Q01DX005 (ip), vehicle: saline with Tween-80) is reported as 106 % of control, the T/C (dose: 25.0 mg/kg/injection, schedule: Q01DX005 (ip), vehicle: saline with Tween-80) is reported as 93 % of control and the T/C (dose: 50.0 mg/kg/injection, schedule: Q01DX005 (ip), vehicle: saline with Tween-80) is reported as 87 % of control and 89 % of control. For the same compound, the T/C (dose: 200.0 mg/kg/injection, schedule: Q01DX005 (ip), vehicle: saline with Tween-80) was 87 % of control.

In the case of `CC1CC(c2ccc3ccccc3c2)NCCNC(c2ccc3ccccc3c2)CC(C)NCCN1` (stereo not given), the T/C (dose: 0.09 mg/kg/injection, schedule: Q01DX009 (ip), vehicle: saline) is reported as 100 % of control, the T/C (dose: 0.18 mg/kg/injection, schedule: Q01DX009 (ip), vehicle: saline) is reported as 103 % of control and the T/C (dose: 0.36 mg/kg/injection, schedule: Q01DX009 (ip), vehicle: saline) is reported as 102 % of control. For the same compound, the T/C (dose: 3.12 mg/kg/injection, schedule: Q01DX009 (ip), vehicle: saline) was 101 % of control and the T/C [2] was 101 % of control.

`COc1ccc(C(C#N)N2CCCC2)cc1` (stereo not given) was tested, and the T/C (dose: 6.25 mg/kg/injection, schedule: Q04DX003 (ip), vehicle: other) was 100 % of control and the T/C (dose: 12.5 mg/kg/injection, schedule: Q04DX003 (ip), vehicle: other) was 100 % of control.

In the case of `COc1ccc(NC(N)=S)cc1OC`, the T/C (dose: 50.0 mg/kg/injection, schedule: Q04DX003 (ip), vehicle: saline with Tween-80) is reported as 95 % of control, the T/C (dose: 100.0 mg/kg/injection, schedule: Q04DX003 (ip), vehicle: saline with Tween-80) is reported as 88 % of control and the T/C [1] is reported as 88 % of control.

`CC1(C)OCC(CO)(Nc2nc(N3CC3)nc(N3CC3)n2)CO1` was tested, and the T/C (dose: 0.62 mg/kg/injection, schedule: Q01DX009 (ip), vehicle: saline) was 120 % of control, the T/C [3] was 158 % of control and 164 % of control and the T/C [4] was 199 % of control and 229 % of control. For the same compound, the T/C (dose: 3.75 mg/kg/injection, schedule: Q01DX009 (ip), vehicle: saline) was 187 % of control and the T/C [5] was 89 % of control and 98 % of control.

`COc1ccc2c(c1OC)C1=C(C2=O)c2cc3c(cc2CCN1)OCO3` was tested, and the T/C (dose: 50.0 mg/kg/injection, schedule: Q01DX005 (ip), vehicle: saline + Tween-80 + alcohol) was 102 % of control, the T/C (dose: 100.0 mg/kg/injection, schedule: Q01DX005 (ip), vehicle: saline + Tween-80 + alcohol) was 100 % of control and the T/C (dose: 200.0 mg/kg/injection, schedule: Q01DX005 (ip), vehicle: saline + Tween-80 + alcohol) was 102 % of control.

For `C/C=C(\C)c1cc(=O)c2c(C)cc3c(c2o1)C(=O)c1c(O)c(C2CC(C)(N(C)C)C(OC(C)=O)C(C)O2)cc(C2CC(N(C)C)C(O)C(C)O2)c1C3=O` (stereo not given), the T/C [3] was 100 % of control, the T/C [4] was 117 % of control and the T/C [5] was 89 % of control.
